The source of these data is article PMC12605013, “SAG1.3-derived Frizzled-targeting small-molecule compounds” (The Journal of Biological Chemistry, 2025).

The target in the experiment is T1, Nluc-FZD6 (Homo sapiens, UniProt O60353).
T1 construct: expressed in transfected cells; host or cells: ΔSMO HEK293A or ΔFZD1–10 HEK293T cells (screen); ΔFZD1–10 HEK293T cells (concentration–response curves)
T1 sequence (O60353 19-706): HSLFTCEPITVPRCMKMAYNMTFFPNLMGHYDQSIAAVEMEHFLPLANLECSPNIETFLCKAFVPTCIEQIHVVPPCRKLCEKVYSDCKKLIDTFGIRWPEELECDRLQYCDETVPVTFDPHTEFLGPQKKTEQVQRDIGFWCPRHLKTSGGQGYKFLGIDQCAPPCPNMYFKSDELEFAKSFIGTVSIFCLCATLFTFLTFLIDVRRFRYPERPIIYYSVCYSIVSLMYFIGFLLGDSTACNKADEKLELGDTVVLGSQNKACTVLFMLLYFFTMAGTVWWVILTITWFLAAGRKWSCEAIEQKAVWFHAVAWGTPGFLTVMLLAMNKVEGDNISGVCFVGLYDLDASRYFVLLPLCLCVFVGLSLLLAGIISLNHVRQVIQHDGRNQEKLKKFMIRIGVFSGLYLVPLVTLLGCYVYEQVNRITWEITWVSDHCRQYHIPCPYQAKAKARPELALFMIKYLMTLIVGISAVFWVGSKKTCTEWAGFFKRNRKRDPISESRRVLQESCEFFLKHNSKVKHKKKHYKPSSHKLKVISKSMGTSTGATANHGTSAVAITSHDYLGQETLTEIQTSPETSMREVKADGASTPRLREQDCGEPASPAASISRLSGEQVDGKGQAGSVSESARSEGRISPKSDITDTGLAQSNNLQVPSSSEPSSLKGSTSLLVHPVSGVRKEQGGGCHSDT
In words: BRET-based BODIPY-cyclopamine competition binding at Nluc-FZD6 in live HEK293 cells. The protocol:
After 24 h, cells were washed once with Hanks' balanced salt solution (HBSS), followed by the addition of 80 μl of HBSS. Next, 10 μl of the competitive ligand, that is, the tested SAG1.3 derivative (either in different concentrations for the concentration–response curves or at a final concentration of 10 μM for the first screens) and 10 μl of the fluorescent tracer BODIPY–cyclopamine (final concentration: 300 nM for the first screens, 200 nM for the concentration–response experiments) were added. All serial dilutions were prepared in HBSS. The cells were incubated for 90 min at 37 °C without additional CO2, after which 10 μl of luciferase substrate diluted in HBSS (furimazine; Promega, N1572, final dilution: 1:1000 for first screening) and coelenterazine h (Biosynth; final concentration: 5 μM for concentration–response experiments) were added to the cells. Following a 10 min incubation period in the dark, the measurement was started on a BMG Labtech ClarioStar or TECAN Spark multimode microplate reader, prewarmed to 37 °C. Nluc bioluminescence was detected between 460 and 490 nm (ClarioStar) or 460 and 500 nm (TECAN Spark). The emission of the fluorescent tracer was detected between 520 and 550 nm (ClarioStar) or between 520 and 560 nm (TECAN Spark).
For each binding experiment, the measurement was repeated five times and averaged for the analysis. ΔBRET values were obtained by subtracting the BRET ratio obtained in wells containing BODIPY–cyclopamine but no competitive ligand (100% value). The BRET values for full displacement were defined using “donor-only” control wells, which contained Nluc-FZDx-transfected cells but no BODIPY–cyclopamine.
For the full concentration–response BRET binding curves in Figure 2, BRET values were normalized (separately for each experiment) to control wells containing BODIPY–cyclopamine but no competitive ligand (100% value) and “donor-only” wells (0% value, described previously). […] Obtained IC50 values were transformed to pIC50 values, which were subsequently averaged between experiments. Displacement curves showing the non-normalized data (ΔBRET values generated as described previously) can be found in Fig. S2.
Shown are mean values and SDs from N independent experiments (N = 2-8) performed in duplicate.
Shown are mean values ± SEM from N independent experiments performed in triplicate.
(Bioluminescence resonance energy transfer reports proximity on the nanometre scale.)

On to `CC(=O)Nc1cccc(C(=O)NC2CCC(N(Cc3cccc(-c4ccncc4)c3)C(=O)c3sc4ccccc4c3Cl)CC2)c1` (stereo not shown) [compound 11, N-((1r,4r)-4-(3-Acetamidobenzamido)cyclohexyl)-3-chloro-N-(3-(pyridin-4-yl)benzyl)benzo[b]thiophene-2-carboxamide], for which the “Displacement @ 10 µM compound (Nluc-FZD6) ΔBRET” value (10 µM compound, BODIPY-cyclopamine 300 nM, BMG Labtech ClarioStar reader (complete tracer displacement: net BRET = -0.02736)) is reported as -0.0228. The compound further displayed a Displacement % (10 µM compound, BODIPY-cyclopamine 300 nM, ClarioStar reader) of 83.2%. Besides, the IC50 (BODIPY-cyclopamine 200 nM, ΔFZD1-10 HEK293T cells, read-out: pIC50 (Nluc-FZD6) mean ± SEM (converted)) was 1020 nM. Also, the “IC50 values of competition binding within the FZD family (in words)” value (Nluc-FZD6 and other FZD paralogs) is reported as “three-digit nanomolar to single-digit micromolar range”.
